Data set [1] concerns the target T1, Solute carrier organic anion transporter family member 1B1 (Homo sapiens, UniProt Q9Y6L6).
T1 sequence (Q9Y6L6 whole entry): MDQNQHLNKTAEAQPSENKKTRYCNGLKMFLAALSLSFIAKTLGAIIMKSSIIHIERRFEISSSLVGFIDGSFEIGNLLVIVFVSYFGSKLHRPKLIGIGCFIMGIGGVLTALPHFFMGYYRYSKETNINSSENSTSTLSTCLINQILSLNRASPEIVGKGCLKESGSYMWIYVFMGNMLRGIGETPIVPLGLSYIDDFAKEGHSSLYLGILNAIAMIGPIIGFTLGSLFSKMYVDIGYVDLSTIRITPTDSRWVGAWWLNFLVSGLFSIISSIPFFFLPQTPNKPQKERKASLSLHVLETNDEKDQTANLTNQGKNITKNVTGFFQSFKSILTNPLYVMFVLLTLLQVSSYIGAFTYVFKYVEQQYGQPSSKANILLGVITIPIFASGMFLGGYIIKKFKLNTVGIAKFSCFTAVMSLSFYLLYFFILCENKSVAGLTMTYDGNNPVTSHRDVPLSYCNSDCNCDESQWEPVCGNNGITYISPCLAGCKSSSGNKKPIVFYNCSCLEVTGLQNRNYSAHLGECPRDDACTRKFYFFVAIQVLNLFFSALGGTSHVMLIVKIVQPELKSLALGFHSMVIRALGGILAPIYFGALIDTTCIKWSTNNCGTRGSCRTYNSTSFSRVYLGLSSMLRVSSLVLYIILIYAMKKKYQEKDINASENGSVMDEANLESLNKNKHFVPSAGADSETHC
The conditions noted are these: chinese hamster, cho, 10 µM.

In data set [2] the target is T2, Solute carrier organic anion transporter family member 1B3 (Homo sapiens, UniProt Q9NPD5).
T2 sequence (Q9NPD5 whole entry): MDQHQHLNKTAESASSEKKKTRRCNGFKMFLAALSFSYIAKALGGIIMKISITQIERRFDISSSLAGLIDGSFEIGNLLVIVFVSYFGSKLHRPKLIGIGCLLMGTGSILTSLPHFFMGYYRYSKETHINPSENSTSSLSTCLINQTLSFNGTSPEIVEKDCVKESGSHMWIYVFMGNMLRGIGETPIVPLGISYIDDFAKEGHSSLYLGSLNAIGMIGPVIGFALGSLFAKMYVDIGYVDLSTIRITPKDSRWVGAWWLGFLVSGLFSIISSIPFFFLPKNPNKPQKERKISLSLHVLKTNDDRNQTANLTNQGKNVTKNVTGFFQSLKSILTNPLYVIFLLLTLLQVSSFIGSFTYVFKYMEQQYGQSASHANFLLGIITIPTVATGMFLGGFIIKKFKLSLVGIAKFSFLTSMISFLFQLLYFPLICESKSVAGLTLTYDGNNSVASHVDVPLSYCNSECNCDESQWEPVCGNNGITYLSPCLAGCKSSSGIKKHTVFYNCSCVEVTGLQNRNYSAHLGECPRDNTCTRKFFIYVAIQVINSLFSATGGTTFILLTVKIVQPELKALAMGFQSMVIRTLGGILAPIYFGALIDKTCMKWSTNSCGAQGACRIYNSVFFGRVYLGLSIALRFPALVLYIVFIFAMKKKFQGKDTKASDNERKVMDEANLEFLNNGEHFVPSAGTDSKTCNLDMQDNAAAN
The settings on record: chinese hamster, cho, 10 µM.

For `CC1(C)S[C@@H]2[C@H](NC(=O)COc3ccccc3)C(=O)N2[C@H]1C(=O)[O-].[K+]` [PENICILLIN V POTASSIUM], the residual activity in data set [1] amounted to 91.66%; in data set [2], 108.8%.
For `CC(C)NCC(O)c1ccc(O)c(O)c1.Cl` (stereo unspecified) [ISOPROTERENOL HYDROCHLORIDE], in that order: 105.2% and 88.72%.
For `ClC1=C(Cl)C2(Cl)C3C(Cl)C=CC3C1(Cl)C2(Cl)Cl` (stereo unspecified) [HEPTACHLOR], in that order: 98.77% and 131.9%.
For `C(=C\c1ccccc1)/CN1CCN(C(c2ccccc2)c2ccccc2)CC1` [CINNARIZINE], the values for the residual activity in data set [1] and in data set [2] were 185.1% and 102.7%, respectively.
For `CCOC(=O)OC(C)OC(=O)[C@@H]1N2C(=O)[C@@H](NC(=O)[C@H](N)c3ccccc3)[C@H]2SC1(C)C.Cl` (stereo partly specified) [BACAMPICILLIN HYDROCHLORIDE] the same measures were 46.45% and 80.61%.
Turning to `C=C(C)[C@H]1CC=C(C(=O)O)CC1` [PERILLIC ACID (-)], the residual activity in data set [1] was determined as 102.2%; in data set [2], 105%.
`CC(C)(C#N)O[C@@H]1O[C@H](CO)[C@@H](O)[C@H](O)[C@H]1O` [LINAMARIN]: the residual activity in data set [1] is recorded as 131.3%; in data set [2], 97.67%.
`CC(C)=CCOc1cc2oc(=O)ccc2cc1O` [PRENYLETIN]: the residual activity amounted to 176.8% in data set [1] and 136% in data set [2].
Turning to `CCCC(=O)Nc1ncnc2c1ncn2[C@@H]1O[C@@H]2COP(=O)(O)O[C@H]2[C@H]1OC(=O)CCC` [BUCLADESINE], the results for the residual activity in data set [1] and in data set [2] were 116% and 88.95%, respectively.
For `CC(=O)O[C@H]1CC[C@@]2(C)[C@@H](CC[C@@H]3[C@@H]2CC[C@]2(C)[C@@H]4[C@H](C[C@@H]32)O[C@@]2(CCC(C)CO2)[C@H]4C)C1` (stereo partly specified) the same measures were 112.3% and 107.6%.
For `COc1cc(O)c(C(=O)/C=C/c2ccccc2)c(OC)c1` [FLAVOKAWAIN B], in that order: 141.4% and 125.2%.
For `CC(C)CC(NC(=O)C(C)N)C(=O)O` (racemic) [ALANYL-dl-LEUCINE], the residual activity in data set [1] is 111.6%; in data set [2] it was 98.55%.
Turning to `Oc1cc(O)c2c(c1)O[C@H](c1cc(O)c(O)c(O)c1)[C@H](O)[C@H]2c1c(O)cc(O)c2c1O[C@H](c1cc(O)c(O)c(O)c1)[C@H](O)[C@H]2c1c(O)cc(O)c2c1O[C@H](c1cc(O)c(O)c(O)c1)[C@H](O)C2` [KATACINE], the residual activity in data set [1] amounted to 133.4%; in data set [2] it was 99.79%.
For `c1ccc2c(c1)cc1ccc3cccc4ccc2c1c34` the same measures were 74.44% and 70.45%.
With `CC1=C(/C=C/C(C)=C/C=C/C(C)=C\C(=O)O)C(C)(C)CCC1` [ISOTRETINOIN], the residual activity in data set [1] worked out at 32.24%; in data set [2], 51.47%.
Take `CC1(C)S[C@@H]2[C@H](NC(=O)C(C(=O)[O-])c3ccccc3)C(=O)N2[C@H]1C(=O)[O-].[Na+].[Na+]` (stereo partly specified) [CARBENICILLIN DISODIUM]: the residual activity in data set [1] came to 108.5%; in data set [2] it was 100.7%.
Consider `COP(=S)(OC)Oc1ccc(SC)c(C)c1` [FENTHION], for which the results for the residual activity in data set [1] and in data set [2] were 116.2% and 100.4%, respectively.
For `C[N+](C)(C)CCOP(=O)(O)OP(=O)([O-])OC[C@H]1O[C@@H](n2ccc(N)nc2=O)[C@H](O)[C@@H]1O` [CITICOLINE] the same measures were 81.06% and 69.94%.
For `CC(=O)O[C@@H]1C[C@H]2C(C)(C)C=CC(=O)[C@@]2(C)[C@H]2CC[C@]3(C)[C@@H](c4ccoc4)OC(=O)[C@H]4O[C@]43[C@]21C`, in that order: 18.57% and 46.89%.
On to `N=C(N)NOCC[C@H](N)C(=O)O` [CANAVANINE], for which the figures for the residual activity in data set [1] and in data set [2] were 101.6% and 91.69%, respectively.
As for `CCN(Cc1ccncc1)C(=O)C(CO)c1ccccc1` (stereo unspecified) [TROPICAMIDE], the residual activity in data set [1] is on record as 75.11%; in data set [2] it was 81.94%.
As for `CC(=O)Nc1cc([As](=O)(O)O)ccc1O` [ACETARSONE], the residual activity was 58.73% in data set [1] and 85.71% in data set [2].
For `CC1(C)C(=O)[C@H]2C[C@]3(O)C4=CC(=O)O[C@@H](c5ccoc5)[C@@]4(C)CCC3[C@](C)(C2=O)[C@H]1CC(=O)O` (stereo partly specified) [8-HYDROXYCARAPINIC ACID], in that order: 73.89% and 78.38%.
With `O=c1cc(-c2ccc(O)cc2)oc2cc(O[C@@H]3O[C@H](CO)[C@@H](O)[C@H](O)[C@H]3O[C@@H]3OC[C@](O)(CO)[C@H]3O)cc(O)c12` [APIIN], the residual activity in data set [1] came out at 69.17%; in data set [2], 141.5%.
Regarding `O=C(O)c1ccccc1OP(=O)(O)O` [FOSFOSAL], the residual activity is reported as 68.68% in data set [1] and 92.75% in data set [2].
In the case of `CCCCC(=O)O[C@H]1CC[C@H]2[C@@H]3CCc4cc(O)ccc4[C@H]3CC[C@]12C` [ESTRADIOL VALERATE], the residual activity in data set [1] was found to be 291.5%; in data set [2], 129.8%.
For `CC(C)=CCC[C@]1(C)C=Cc2c(O)c3c(c(CC=C(C)C)c2C1)O[C@]12C(=C[C@@H]4C[C@H]1C(C)(C)O[C@@]2(C/C=C(/C)C(N)=O)C4=O)C3=O` the same measures were 57.81% and 70.77%.
For `Cc1cccc(N(C)C(=S)Oc2ccc3ccccc3c2)c1` [TOLNAFTATE] the same measures were 126.3% and 119%.
Regarding `CC(C)CCC[C@@H](C)[C@H]1CC[C@H]2[C@@H]3C[C@@H](O)[C@@]4(O)C[C@@H](O)CC[C@]4(C)[C@H]3CC[C@]12C` [CHOLESTAN-3beta,5alpha,6beta-TRIOL], the residual activity in data set [1] was 90.42%; in data set [2], 93.54%.
`CC(=O)OC(C)(C)[C@@H]1Cc2cc3ccc(=O)oc3cc2O1` [MARMESIN ACETATE]: the residual activity in data set [1] was 70.52%; in data set [2], 88.18%.
For `CC(=O)O[C@H]1CC[C@@]2(C)C(=CC[C@@H]3[C@@H]2CC[C@]2(C)C4C(C[C@@H]32)OC2(CCC(C)CO2)[C@H]4C)C1` (stereo partly specified), in that order: 111% and 105.4%.
For `CCOC(=O)[C@H](CCc1ccccc1)N[C@@H](C)C(=O)N1[C@H](C(=O)O)C[C@H]2CCCC[C@@H]21` [TRANDOLAPRIL] the same measures were 118% and 102.1%.
For `COc1ccc(-c2coc3cc(OC)cc(OC)c3c2=O)cc1` [BIOCHANIN A, DIMETHYL ETHER], in that order: 100.7% and 81.69%.
For the compound `C=CCCCCCCCCCCCC(O)CC(O)CO` (stereo in doubt; form 1) [AVOCADENE], the values for the residual activity in data set [1] and in data set [2] were 107.8% and 100.3%, respectively.
For `COc1cc2c(cc1O)C[C@H]1c3c(cc(O)c(OC)c3-2)CCN1C` [BOLDINE] the same measures were 47.95% and 100.1%.
For `CC1(C)CC[C@]2(C(=O)O)[C@H](O)C[C@]3(C)C(=CC[C@@H]4[C@@]5(C)CC[C@H](O)C(C)(C)[C@@H]5CC[C@]43C)[C@@H]2C1` [ECHINOCYSTIC ACID] the same measures were 69.3% and 30.48%.
For `CS(=O)(=O)CCCCN=C=S` [ERYSOLIN] the same measures were 108.6% and 72.62%.
Take `C[C@H](CCC(=O)O)[C@H]1CC[C@H]2[C@@H]3CC[C@@H]4CCCC[C@]4(C)[C@H]3CC[C@]12C` [URSOCHOLANIC ACID]: the residual activity is given as 98.45% in data set [1] and 102.7% in data set [2].

A word on the residual activity: it is the signal under treatment as a percentage of the control signal.
